Measurements published in patent US20220081412A1, “QUINOLINYL-PYRAZINE-CARBOXAMIDE COMPOUNDS AND USES THEREOF” (The Regents of the University of Michigan, priority 2018, published 2022).

Tested on: MIA PaCa-2 cells
Assay: Bru-seq analysis for nascent RNA synthesis (log2FC of genes, GSEA gene sets)
Format: cell-based, human
[1] = downregulated gene sets, TFBT, 4 h, MIA PaCa-2 cells
[2] = gene set ADDYA_ERYTHROID_DIFFERENTIATION_BY_HEMIN, 4 h
[3] = gene set AMIT_SERUM_RESPONSE_60_MCF10A, 4 h
[4] = gene set BURTON_ADIPOGENESIS_10, 4 h
[5] = gene set CHANG_CORE_SERUM_RESPONSE_DN, 4 h
[6] = gene set CUI_GLUCOSE_DEPRIVATION, 4 h
[7] = gene set DACOSTA_UV_RESPONSE_VIA_ERCC3_UP, 4 h
[8] = gene set DAZARD_RESPONSE_TO_UV_NHEK_UP, 4 h
[9] = gene set DIRMEIER_LMP1_RESPONSE_EARLY, 4 h
[10] = gene set ENK_UV_RESPONSE_KERATINOCYTE_UP, 4 h
[11] = gene set GEORGANTAS_HSC_MARKERS, 4 h
[12] = gene set GO_ALCOHOL_BIOSYNTHETIC_PROCESS, 4 h
[13] = gene set GO_ALCOHOL_METABOLIC_PROCESS, 4 h
[14] = gene set GO_CELLULAR_LIPID_CATABOLIC_PROCESS, 4 h
[15] = gene set GO_CELLULAR_RESPONSE_TO_TOPOLOGICALLY_INCORRECT_PROTEIN, 4 h
[16] = gene set GO_CHROMATIN_ASSEMBLY_OR_DISASSEMBLY, 4 h
[17] = gene set GO_DNA_PACKAGING_COMPLEX, 4 h
[18] = gene set GO_ER_NUCLEUS_SIGNALING_PATHWAY, 4 h
[19] = gene set GO_FATTY_ACID_BIOSYNTHETIC_PROCESS, 4 h
[20] = gene set GO_INTRINSIC_COMPONENT_OF_ENDOPLASMIC_RETICULUM_MEMBRANE, 4 h
[21] = gene set GO_IRE1_MEDIATED_UNFOLDED_PROTEIN_RESPONSE, 4 h
[22] = gene set GO_ISOPRENOID_BIOSYNTHETIC_PROCESS, 4 h
[23] = gene set GO_LYSOSOMAL_LUMEN, 4 h
[24] = gene set GO_NUCLEAR_NUCLEOSOME, 4 h
[25] = gene set GO_ORGANIC_HYDROXY_COMPOUND_BIOSYNTHETIC_PROCESS, 4 h
[26] = gene set GO_PROTEIN_DNA_COMPLEX, 4 h
[27] = gene set GO_PROTEIN_DNA_COMPLEX_SUBUNIT_ORGANIZATION, 4 h
[28] = gene set GO_REGULATION_OF_ENDOPLASMIC_RETICULUM_STRESS_INDUCED_INTRINSIC_APOPTOTIC_SIGNALING_PATHWAY, 4 h
[29] = gene set GO_RESPONSE_TO_ENDOPLASMIC_RETICULUM_STRESS, 4 h
[30] = gene set GO_RESPONSE_TO_TOPOLOGICALLY_INCORRECT_PROTEIN, 4 h
[31] = gene set GO_SMALL_MOLECULE_BIOSYNTHETIC_PROCESS, 4 h
[32] = gene set GO_STEROID_BIOSYNTHETIC_PROCESS, 4 h
[33] = gene set GO_STEROID_METABOLIC_PROCESS, 4 h
[34] = gene set GO_STEROL_BIOSYNTHETIC_PROCESS, 4 h
[35] = gene set GO_STEROL_METABOLIC_PROCESS, 4 h
[36] = gene set HALLMARK_ADIPOGENESIS, 4 h
[37] = gene set HALLMARK_ANDROGEN_RESPONSE, 4 h
[38] = gene set HALLMARK_APOPTOSIS, 4 h
[39] = gene set HALLMARK_CHOLESTEROL_HOMEOSTASIS, 4 h
[40] = gene set HALLMARK_COAGULATION, 4 h
[41] = gene set HALLMARK_DNA_REPAIR, 4 h
[42] = gene set HALLMARK_EPITHELIAL_MESENCHYMAL_TRANSITION, 4 h
[43] = gene set HALLMARK_ESTROGEN_RESPONSE_EARLY, 4 h
[44] = gene set HALLMARK_ESTROGEN_RESPONSE_LATE, 4 h
[45] = gene set HALLMARK_FATTY_ACID_METABOLISM, 4 h
[46] = gene set HALLMARK_GLYCOLYSIS, 4 h
[47] = gene set HALLMARK_HEME_METABOLISM, 4 h

In the case of `CCN(CC)CCCC(C)Nc1cnc(C(=O)Nc2cc(C)cc3cccnc23)cn1` (stereo not drawn) [J4, 5-((5-(diethylamino)pentan-2-yl)amino)-N-(6-methylquinolin-8-yl)pyrazine-2-carboxamide], the “ES PBX1_02” value [1] is reported as −0.282, the “ES PIT1_Q6” value [1] is reported as −0.263 and the “ES POU1F1_Q6” value [1] is reported as −0.236. For the same compound, the “ES TAANNYSGCG_UNKNOWN” value [1] was −0.253, the “ES TAAWWATAG_RSRFC4_Q2” value [1] was −0.271 and the “ES TAAYNRNNTCC_UNKNOWN” value [1] was −0.314. The “ES YKACATTT_UNKNOWN” value [1] was −0.221, the “NES BRN2_01” value [1] was −1.086 and the “NES CDPCR1_01” value [1] was −1.030. The “NES CDP_01” value [1] was −1.041, the “NES EN1_01” value [1] was −1.062 and the “NES FOXJ2_02” value [1] was −1.154. For the same compound, the “NES GGCKCATGS_UNKNOWN” value [1] was −1.621, the “NES HMEF2_Q6” value [1] was −1.037 and the “NES HNF1_Q6” value [1] was −1.145. The “NES HOX13_01” value [1] was −1.144, the “NES IK1_01” value [1] was −1.074 and the “NES IRF2_01” value [1] was −1.322. The “NES MEF2_02” value [1] was −0.965, the “NES MEF2_Q6_01” value [1] was −0.985 and the “NES MEIS1BHOXA9_01” value [1] was −1.269. The “NES NKX3A_01” value [1] was −1.213, the “NES PAX8_01” value [1] was −1.304 and the “NES PBX1_02” value [1] was −1.130. For the same compound, the “NES PIT1_Q6” value [1] was −1.156, the “NES POU1F1_Q6” value [1] was −1.032 and the “NES TAANNYSGCG_UNKNOWN” value [1] was −1.012. The “NES TAAWWATAG_RSRFC4_Q2” value [1] was −1.112, the “NES TAAYNRNNTCC_UNKNOWN” value [1] was −1.303 and the “NES YKACATTT_UNKNOWN” value [1] was −1.039. It also gave an ES [2] of 0.708, an NES [2] of 2.307 and an ES [3] of 0.728. For the same compound, the NES [3] was 2.228, the ES [4] was 0.790 and the NES [4] was 2.254. For the same compound, the ES [5] was 0.624, the NES [5] was 2.370 and the ES [6] was 0.760. For the same compound, the NES [6] was 2.383, the ES [7] was 0.569 and the NES [7] was 2.301. It also gave an ES [8] of 0.602, an NES [8] of 2.291 and an ES [9] of 0.764. The NES [9] was 2.410, the ES [10] was 0.590 and the NES [10] was 2.464. The ES [11] was 0.736, the NES [11] was 2.234 and the ES [12] was 0.728. The NES [12] was 2.531, the ES [13] was 0.543 and the NES [13] was 2.127. For the same compound, the ES [14] was 0.577, the NES [14] was 2.080 and the ES [15] was 0.635. It also gave an NES [15] of 2.333, an ES [16] of 0.576 and an NES [16] of 2.165. For the same compound, the ES (gene set GO_DNA_PACKAGING, 4 h) was 0.570, the NES (gene set GO_DNA_PACKAGING, 4 h) was 2.161 and the ES [17] was 0.755. It also gave an NES [17] of 2.422, an ES [18] of 0.739 and an NES [18] of 2.156. For the same compound, the ES [19] was 0.626, the NES [19] was 2.043 and the ES [20] was 0.577. It also gave an NES [20] of 2.075, an ES [21] of 0.690 and an NES [21] of 2.300. For the same compound, the ES [22] was 0.796, the NES [22] was 2.093 and the ES [23] was 0.637. The NES [23] was 2.060, the ES [24] was 0.832 and the NES [24] was 2.218. The ES [25] was 0.651, the NES [25] was 2.372 and the ES [26] was 0.619. The NES [26] was 2.288, the ES [27] was 0.521 and the NES [27] was 2.041. For the same compound, the ES [28] was 0.774, the NES [28] was 2.132 and the ES [29] was 0.526. For the same compound, the NES [29] was 2.067, the ES [30] was 0.616 and the NES [30] was 2.337. It also gave an ES [31] of 0.555, an NES [31] of 2.227 and an ES [32] of 0.784. The NES [32] was 2.632, the ES [33] was 0.667 and the NES [33] was 2.432. For the same compound, the ES [34] was 0.878, the NES [34] was 2.656 and the ES [35] was 0.748. The NES [35] was 2.604, the ES [36] was 0.465 and the NES [36] was 1.784. For the same compound, the ES [37] was 0.529, the NES [37] was 1.875 and the ES [38] was 0.485. The NES [38] was 1.804, the ES [39] was 0.759 and the NES [39] was 2.533. For the same compound, the ES [40] was 0.516, the NES [40] was 1.624 and the ES [41] was 0.377. It also gave an NES [41] of 1.422, an ES [42] of 0.407 and an NES [42] of 1.436. For the same compound, the ES [43] was 0.458, the NES [43] was 1.719 and the ES [44] was 0.443. For the same compound, the NES [44] was 1.631, the ES [45] was 0.551 and the NES [45] was 2.054. It also gave an ES [46] of 0.417, an NES [46] of 1.603 and an ES [47] of 0.389. It also gave an NES [47] of 1.480, an ES (gene set HALLMARK_HYPOXIA, 4 h) of 0.591 and an NES (gene set HALLMARK_HYPOXIA, 4 h) of 2.235.
